Common to all, as to assay: NCI anticancer screen, dose series, 48 h
Experiment [1] has as its system CAKI-1 renal.
The subject of experiment [2] is HOP-62 NSCLC.
For experiment [3], the system named is MDA-MB-435.
Experiment [4] concerns OVCAR-4 ovarian.
The test system of experiment [5] is SK-MEL-2 melanoma.
Experiment [6] relates to SK-MEL-28 melanoma.
Experiment [7] has as its system SN12C renal.
Experiment [8] relates to SNB-19 CNS.
Experiment [9] has as its system A498 renal.
Experiment [10] deals with MALME-3M melanoma.

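Method: 48-hour compound exposure of cells in 96-well plates, five concentrations, linear interpolation of endpoints. The concentration for 50% growth inhibition is given as GI50. TGI is the concentration that stops growth completely.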

The results in this text go back to PubChem BioAssay (NCI).

In the case of `O=C(c1ccccc1)n1c(-c2ccccc2)cs/c1=N\S(=O)(=O)c1ccc(N2N=C3c4ccccc4CC3C2c2cccs2)cc1` (stereo not drawn), the GI50 in [1] was 38 µM; in experiment [2] it was 23.7 µM; in experiment [3], 31.1 µM; in experiment [4], over 100 µM; in experiment [5], over 100 µM; in [6] it was over 100 µM. Also, the results for the GI50 in experiment [7] and in [8] were 44.4 µM and 59.3 µM, respectively. For the same compound, the TGI is over 100 µM in [1]; 57.1 µM in experiment [2]; over 100 µM in [3]; over 100 µM in experiment [4]; over 100 µM in experiment [5]; over 100 µM in experiment [6]. Further, the TGI in [7] and in experiment [8] was over 100 µM in each case.
For the compound `CC[N+](C)(CC)CC(C)(C)C(=O)/C=C/c1ccc(/C=C/C(=O)C(C)(C)C[N+](C)(CC)CC)cc1`, the TGI in experiment [9], in experiment [1], in experiment [2], in experiment [10], in experiment [4] and in experiment [6] was over 100 µM each time. Also, the TGI in experiment [7] and in [8] was over 100 µM throughout.
Turning to `CN(C)CCNC(=O)c1cccc2ccc(-c3ccc(-c4ccccc4)cc3)nc12`, the TGI in [9] was 11 µM; in experiment [1], 11 µM; in [2], 10.3 µM; in [10], 3.61 µM; in [4] it was 6.74 µM; in experiment [5], 32.7 µM. Further, the TGI in [6] is 3.29 µM; in experiment [7], 20.2 µM; in [8], 25.1 µM.
Regarding `O=C1C2C3C=C4c5ccccc5N(c5ccccc5)C4(C2C(=O)N1c1ccc(Br)cc1)[C@H]1C(=O)N(c2ccc(Br)cc2)C(=O)[C@@H]31` (stereo partly drawn), the TGI was over 100 µM in experiment [9]; 81.5 µM in experiment [1]; over 100 µM in [2]; over 100 µM in experiment [10]; over 100 µM in experiment [4]; over 100 µM in experiment [5]. In addition, the TGI in experiment [7] and in experiment [8] was over 100 µM in each case.
In the case of `O=C(C/C(CCC(=O)N(Cc1ccccc1)Cc1ccccc1)=N/Nc1ccc([N+](=O)[O-])cc1[N+](=O)[O-])c1ccccc1`, the TGI in experiment [2], in [10], in [4], in experiment [5], in [6] and in [8] was over 100 µM throughout.
With `Cc1nc2sccn2c1C(=O)NC(=O)Nc1ccc(Cl)cc1`, the TGI in experiment [9], in [1], in experiment [2], in [10], in [4] and in experiment [5] was over 100 µM each time. The TGI in experiment [6], in experiment [7] and in experiment [8] was over 100 µM throughout.
`Cn1c(=O)c2[nH]cnc2n(CC(N)=O)c1=O`: the TGI in [9], in [1], in [2], in [10], in [5] and in experiment [6] was over 100 µM in each case. Besides, the TGI in experiment [7] and in [8] was over 100 µM each time.
Consider `COC(=O)/C=c1\s/c(=C\C(=O)OC)c2ccccc12`, for which the TGI in [9], in [1], in experiment [10], in [4], in experiment [5] and in experiment [6] was over 100 µM in each case. The TGI in experiment [7] and in experiment [8] was over 100 µM throughout.
Turning to `COc1cc2c(cc1C1=NC(C)(C)CO1)OCO2`, the TGI in [1], in experiment [2], in experiment [10], in [4], in [5] and in experiment [6] was over 100 µM in each case. Further, the TGI in experiment [7] and in experiment [8] was over 100 µM in each case.
Turning to `N#Cc1ccc2cc3c(cc2c1)OCO3`, the TGI in [9], in experiment [2], in experiment [4], in experiment [5], in experiment [6] and in [7] was over 100 µM each time. Also, in experiment [8], the TGI was over 100 µM.
`COC1C2c3cc4c(cc3CC(C#N)(c3ccccc32)N1C(=O)c1ccccc1)OCO4` (stereo not drawn): the TGI in experiment [2], in experiment [10], in experiment [5], in experiment [6], in [7] and in experiment [8] was over 100 µM in each case.
On to `C/C=C/COC(=O)CO[N+](=O)[O-]`, for which the TGI in experiment [1], in [2], in experiment [10], in [4], in [5] and in experiment [7] was over 100 µM in each case. This compound registered a TGI in experiment [8] of over 100 µM.
With `S=C=NCCc1ccccc1`, the TGI in [9] is 2 µM; in [2], 1.35 µM; in experiment [10], 2.51 µM; in experiment [4], 6.33 µM; in experiment [5] it was 0.928 µM; in [6] it was 2.27 µM. Further, the TGI worked out at 0.987 µM in experiment [7] and 7.85 µM in experiment [8].
With `O=c1[nH]c(=O)n(C2OC(CO)C(O)C2O)cc1OCC(F)(F)F` (stereo not drawn), the TGI in experiment [9], in [1], in experiment [2], in experiment [10], in experiment [4] and in [5] was over 100 µM each time. For the same compound, the TGI in [6], in experiment [7] and in experiment [8] was over 100 µM throughout.
In the case of `C=CCOC(=O)C1CCC(=O)N1C(=O)C(Cl)Cl` (stereo not drawn), the TGI in [9], in experiment [1], in [2], in experiment [10], in experiment [4] and in [5] was over 100 µM in each case. In addition, the TGI in [6], in experiment [7] and in experiment [8] was over 100 µM each time.
In the case of `c1ccc(P(=C2c3ccccc3-c3ccccc32)(c2ccccc2)c2ccccc2)cc1`, the TGI in [1] was over 100 µM; in experiment [2] it was 8.17 µM; in [4] it was over 100 µM; in experiment [5], 23.5 µM; in [6] it was 20.2 µM; in experiment [7], 10.9 µM. Besides, the TGI in [8] is over 100 µM.
